# Results taken from patent EP4389751A1, “HETEROCYCLIC COMPOUNDS AND USES THEREOF” (Kumquat Biosciences Inc., priority 2021, dated 2024).
# Molecular target: T1, K-Ras G12S (Homo sapiens, UniProt P01116, G12S)
# T1 construct: made in house; host or cells: E. coli (e.g., BL21 (DE3))
# Assay: HTRF assay of the K-Ras / SOS1 interaction
# Type: biochemical
# Conditions: IC50 (against K-Ras G12D) to IC50 (against K-Ras G12S)
# From the text: This assay can be also used to assess a selective inhibition or reduction of signaling output of a mutant Ras protein relative to a wildtype, or relative to a different mutant Ras protein. For example, the equilibrium interaction of wildtype Kras or K-Ras mutant (e.g., wildtype or a mutant thereof including those mentioned in Example 6) with SOS1 (e.g., hSOS1) can be assessed as a proxy or an indication for a subject compound's ability to bind and inhibit Ras protein. HTRF assay detects from (i) a fluorescence resonance energy transfer (FRET) donor (e.g., antiGST-Europium) that is bound to GST-tagged K-Ras mutant to (ii) a FRET acceptor (e.g., anti-6His-XL665) bound to a His-tagged hSOS 1.
# The assay buffer can contain ~5 mM HEPES pH 7.4, -150 mM NaCI, - 1 mM DTT, 0.05% BSA and 0.0025% (v/v) Igepal. A Ras working solution is prepared in an assay buffer containing typically a suitable amount of the protein construct (e.g., GST-tagged K-Ras mutant) and the FRET donor (e.g., antiGST-Eu(K) from Cisbio, France). A SOS1 working solution is prepared in an assay buffer containing suitable amount of the protein construct (e.g., His-hSOS1) and the FRET acceptor (e.g., anti-6His-XL665 from Cisbio, France). A suitable amount of the protein construct will depend on the range of activity or range of IC50 values being detected or under investigation. For detecting IC50 within a range of 500 nM, the protein constructs of the same range of molarity can be utilized.
# A fixed volume of DMSO with or without test compound is transferred into a 384-well plate. Ras working solution is added to all wells of the test plate. SOS1 working solution is added to all wells except for those that are subsequently filled the inhibitor control solution. Upon incubation for about 10 minutes or longer, the fluorescence is measured with a M1000Pro plate reader (Tecan) using HTRF detection (excitation 337nm, emission 1 : 620nm, emission 2: 665nm). Compounds are tested in duplicates at different concentrations (for example, 10 µM, 2.5 µM, 0.63 µM, 0.16 µM, 0.04 µM, 0.01 µM test compound). The ratiometric data (i.e., emission 2 divided by emission 1) is used to calculate IC50 values against Ras using GraphPad Prism (GraphPad software). Following this general procedure, samples were tested with or without a subject compound disclosed herein including compounds exemplified in Table 3 to assess their abilities to inhibit K-Ras G12S relative to another mutant (e.g., K-Ras G12D). Signaling output measured in terms of IC50 values can be obtained, a ratio of IC50 against one mutant relative to another mutant can be calculated. For instance, a selective reduction of K-Ras G12S signaling output can be evidenced by a ratio greater than one. In particular, a selective reduction of K-Ras G12S signaling relative to K-Ras G12D signaling is evidenced as the ratio of IC50 (against K-Ras G12D) to IC50 (against K-Ras G12S) is greater than 1. […]
# T1 sequence (P01116 1-188 isoform P01116-2 G12S): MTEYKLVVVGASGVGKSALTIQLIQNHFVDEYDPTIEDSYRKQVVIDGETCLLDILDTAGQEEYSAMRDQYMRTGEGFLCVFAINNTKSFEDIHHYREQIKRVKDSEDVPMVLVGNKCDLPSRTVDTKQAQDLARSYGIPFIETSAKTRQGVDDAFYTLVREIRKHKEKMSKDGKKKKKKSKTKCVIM
row,Structure (SMILES),Ratio of IC50 KRAS G12D vs. IC50 KRAS G12S
1,"N#Cc1ccn(C(=O)N2CCC(Nc3nc(OC[C@@]45CCCN4C[C@H](F)C5)nc4c(F)c(-c5ccc(F)c6sc(N)nc56)c(Cl)cc34)CC2)n1 [Compound A173, 1-(4-((7-(2-amino-7-fluorobenzo[d]thiazol-4-yl)-6-chloro-8-fluoro-2-(((2R,7aS)-2-fluorotetrahydro-1H-pyrrolizin-7a(5H)-yl)methoxy)quinazolin-4-yl)amino)piperidine-1-carbonyl)-1H-pyrazole-3-carbonitrile]",A (A: indicates that the ratio of IC50 against KrasG12D vs. IC50 against KrasG12S is 1-fold or greater)
2,"Nc1nc2c(-c3c(Cl)cc4c(N5CCC6(CCN(C(=O)n7cncn7)C6)C5)nc(OC[C@@]56CCCN5C[C@H](F)C6)nc4c3F)ccc(F)c2s1 (stereo partly drawn) [Compound A175, (7-(7-(2-amino-7-fluorobenzo[d]thiazol-4-yl)-6-chloro-8-fluoro-2-(((2R,7aS)-2-fluorotetrahydro-1H-pyrrolizin-7a(5H)-yl)methoxy)quinazolin-4-yl)-2,7-diazaspiro[4.4]nonan-2-yl)(1H-1,2,4-triazol-1-yl)methanone]",A (A: indicates that the ratio of IC50 against KrasG12D vs. IC50 against KrasG12S is 1-fold or greater)
3,"Nc1nc2c(-c3c(Cl)cc4c(N5CC6CCC5CN6C(=O)n5cncn5)nc(OC[C@@]56CCCN5C[C@H](F)C6)nc4c3F)ccc(F)c2s1 (stereo partly drawn) [Compound A192, (5-(7-(2-amino-7-fluorobenzo[d]thiazol-4-yl)-6-chloro-8-fluoro-2-(((2R,7aS)-2-fluorotetrahydro-1H-pyrrolizin-7a(5H)-yl)methoxy)quinazolin-4-yl)-2,5-diazabicyclo[2.2.2]octan-2-yl)(1H-1,2,4-triazol-1-yl)methanone]",A (A: indicates that the ratio of IC50 against KrasG12D vs. IC50 against KrasG12S is 1-fold or greater)
4,"Nc1nc2c(-c3c(Cl)cc4c(N5C[C@H]6CC[C@@H](C5)N6C(=O)n5ccc(F)n5)nc(OC[C@@]56CCCN5C[C@H](F)C6)nc4c3F)ccc(F)c2s1 [Compound A214, ((1R,5S)-3-(7-(2-amino-7-fluorobenzo[d]thiazol-4-yl)-6-chloro-8-fluoro-2-(((2R,7aS)-2-fluorotetrahydro-1H-pyrrolizin-7a(5H)-yl)methoxy)quinazolin-4-yl)-3,8-diazabicyclo[3.2.1]octan-8-yl)(3-fluoro-1H-pyrazol-1-yl)methanone]",A (A: indicates that the ratio of IC50 against KrasG12D vs. IC50 against KrasG12S is 1-fold or greater)
5,"N#Cc1c(N)sc2c(F)ccc(-c3c(Cl)cc4c(N5CCOC6(CN(C(=O)n7cncn7)C6)C5)nc(OC[C@@]56CCCN5C[C@H](F)C6)nc4c3F)c12 [Compound A232, 4-(4-(2-(1H-1,2,4-triazole-1-carbonyl)-5-oxa-2,8-diazaspiro[3.5]nonan-8-yl)-6-chloro-8-fluoro-2-(((2R,7aS)-2-fluorotetrahydro-1H-pyrrolizin-7a(5H)-yl)methoxy)quinazolin-7-yl)-2-amino-7-fluorobenzo[b]thiophene-3-carbonitrile]",A (A: indicates that the ratio of IC50 against KrasG12D vs. IC50 against KrasG12S is 1-fold or greater)
6,"C[C@H](Oc1nc(OC2CCN(C(=O)Nc3nccs3)C2)c2cc(Cl)c(-c3ccc(F)c4sc(N)c(C#N)c34)c(F)c2n1)[C@@H]1CCCN1C (stereo partly drawn) [Compound A237, 3-((7-(2-amino-3-cyano-7-fluorobenzo[b]thiophen-4-yl)-6-chloro-8-fluoro-2-((S)-1-((S)-1-methylpyrrolidin-2-yl)ethoxy)quinazolin-4-yl)oxy)-N-(thiazol-2-yl)pyrrolidine-1-carboxamide]",A (A: indicates that the ratio of IC50 against KrasG12D vs. IC50 against KrasG12S is 1-fold or greater)
